Measured values published in patent US20240033211A1, “EXTRACT OF AT LEAST ONE PLANT OF THE CROCUS SATIVUS SPECIES COMPRISING A HIGH CONTENT OF CROCINS AND A LOW CONTENT OF SAFRANAL, AND COSMETIC USE THEREOF AS ANTIOXIDANT” (L'OREAL, priority 2020, published 2024).

Test: Study of squalene peroxidation (UVA, hematoporphyrin photosensitizer, singlet oxygen)
Format: biochemical
Excerpt: Protocol: The principle of the test is to determine, via the assaying of squalene (Sq) and its photo-oxidation product, the efficacy of an active agent against this form of photo-peroxidation.
The test makes use of squalene in the presence of a photosensitizer, hematoporphyrin. Under the action of UVA rays, singlet oxygen (^1O2) is generated. This highly reactive form of oxygen degrades the squalene by oxidation of the double bonds to form squalene hydroperoxides (Sq-OOH).
In the context of the test, the exposure of squalene combined with hematoporphyrin is carried out in the presence of various concentrations of extract obtained according to Example 2 (according to the invention) and according to Example 3 (outside the invention). The reaction medium is ethanol.
Equipment and Reagents: • Squalene [Sigma S-3626] • Hematoporphyrine Free Base (approx. 70%) [Sigma—ref H-7253] • HPLC or UPLC system in reverse phase mode, detection in UV mode (205 nm)
Procedure: • ethanol solution containing 500 μg/ml of Sq and 2 μg/ml hematoporphyrin+extract to be tested • expose to UVA rays for the dose of 5 J/cm^2 • measure the amount of Sq and SqOOH before and after exposure • plot % inhibition as a function of the amount of extract tested.
*IC25: concentration of raw material needed to inhibit squalene peroxidation by 25%. […]

## vitamin E
Comparison value for vitamin E, printed as % (=250 ppm)
  IC50 (squalene peroxidation): ~0.025%
Solution in ethanol, UVA 5 J/cm^2
  IC50 (concentration of raw material needed to inhibit squalene peroxidation by 50%): ~250 ppm
